Assay results reported in patent publication US20160025753A1, “ASSAY FOR CANNABINOIDS AND METHODS OF USE THEREOF” (priority 2014, published 2016).
Values joined by “and” are separate entries in the source; they are usually repeats but may differ in a detail not shown here. Identical values can stand only once. Like-named read-outs stand apart in the source and are kept apart here.

Legend:
[1] = molecular target: T1, human cannabinoid receptor 1 membrane preparation (Homo sapiens, UniProt P21554); type: binding
T1 construct: purchased EMD Millipore

[2] = molecular target: T2, CB1 human recombinant protein (Homo sapiens, UniProt P21554); assay: Heterogeneous competitive plate assay, Δ9-THC conjugate coated 96-well plate, anti-CB1 antibody/HRP detection (Example 3)
[3] = molecular target: T2, CB1 human recombinant protein; type: binding; design: purchased Abnova
CB2 receptors = CB2 receptors (Homo sapiens, UniProt P34972); settings: background statement; cited from earlier work
CB2 receptors, sequence (P34972 whole entry): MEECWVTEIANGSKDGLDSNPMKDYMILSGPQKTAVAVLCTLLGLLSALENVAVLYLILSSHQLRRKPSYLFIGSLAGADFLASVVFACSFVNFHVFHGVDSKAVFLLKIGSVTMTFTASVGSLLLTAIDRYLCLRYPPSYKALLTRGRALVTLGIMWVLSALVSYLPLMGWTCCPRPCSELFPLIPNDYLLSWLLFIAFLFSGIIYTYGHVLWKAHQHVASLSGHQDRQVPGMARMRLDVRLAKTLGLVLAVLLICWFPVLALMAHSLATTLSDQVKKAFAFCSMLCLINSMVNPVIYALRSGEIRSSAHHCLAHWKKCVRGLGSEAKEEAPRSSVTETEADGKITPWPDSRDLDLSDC

T1 sequence (P21554 whole entry): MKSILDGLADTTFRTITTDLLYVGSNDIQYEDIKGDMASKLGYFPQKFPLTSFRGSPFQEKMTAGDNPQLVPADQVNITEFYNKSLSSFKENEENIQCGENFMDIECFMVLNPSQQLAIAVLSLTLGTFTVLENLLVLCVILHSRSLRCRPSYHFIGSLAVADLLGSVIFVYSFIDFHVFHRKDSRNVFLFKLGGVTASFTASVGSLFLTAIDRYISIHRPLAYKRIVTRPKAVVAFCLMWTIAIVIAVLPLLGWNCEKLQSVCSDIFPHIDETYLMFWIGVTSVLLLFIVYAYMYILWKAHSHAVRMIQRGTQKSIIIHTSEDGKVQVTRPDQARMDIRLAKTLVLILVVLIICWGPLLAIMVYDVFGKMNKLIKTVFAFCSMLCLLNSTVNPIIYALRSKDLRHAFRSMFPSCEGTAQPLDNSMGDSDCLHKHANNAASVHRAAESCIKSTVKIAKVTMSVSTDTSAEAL
T2 sequence (P21554 whole entry): as above

SMILES: CCCCCCCC(C)(C)c1ccc([C@H]2CCC[C@@H](O)C2)c(O)c1 [Cannabicyclohexanol]
- Relative Fluorescent Units (RFU) ([1]; 1 μg/mL sample, excitation 535 nm, emission 610 nm, no cannabinoids 47,934): 20,667 RFU
- Detection by the assay (in words) ([1]; 1 μg/mL solution of each): comparable response

SMILES: CCCCCCC(C)(C)c1cc(O)c2c(c1)OC(C)(C)[C@@H]1CC=C(CO)C[C@@H]21 [HU-210]
- Detection by the assay (in words) [1]: comparable response
- Relative Fluorescent Units (RFU) [1]: 21,014 RFU
- Inhibition of absorbance at 450 nm (in words) ([2]; sample containing 100 ng/ml): significant inhibition of absorbance
- Average Absorbance @ 450 nm ([2]; with 100 ng/mL HU-210, average of 6 replicates, no cannabinoid blank 2.279): 1.480
- Absorbance @ 450 nm ([2]; with 100 ng/mL HU-210, single replicates, no cannabinoid blank average 2.279): 1.435 and 1.480 and 1.416 and 1.602 and 1.379 and 1.569

SMILES: CCCCCn1cc(C(=O)c2cccc3ccccc23)c2cc(O)ccc21 [JWH-018 5-hydroxyindole metabolite]
- Signal inhibition (relative absorbance at 450 nm) ([3]; 100 ng/mL test sample, FIG. 8): showed less signal inhibition

SMILES: CCCCCn1cc(C(=O)c2cccc3ccccc23)c2ccccc21 [JWH-018]
- Detection by the assay (in words) [1]: comparable response
- Relative Fluorescent Units (RFU) [1]: 22,299 RFU
- Signal inhibition (relative absorbance at 450 nm) [3]: demonstrated signal inhibition

SMILES: C=C(C)[C@@H]1CCC(C)=C[C@H]1c1c(O)cc(CCCCC)cc1O [cannabidiol, Cannabidiol]
- Affinity for CB2 receptors (CB2 receptors): low affinity
